{
  "source": "paper PMC12992107",
  "about": "(Journal of medicinal chemistry, 2024)",
  "key": {"Plasmodium berghei [1]": {"system": "Plasmodium berghei", "test": "Standard four-day Peters test in P. berghei-infected mice", "details": "for cured: parasite-free mice on day 30"}, "[2]": {"test": "Plasma protein binding, dilution method"}, "P. falciparum Dd2 Polδ": {"system": "P. falciparum Dd2 Polδ", "test": "Single-step resistance selection assay", "type": "cell-based, Plasmodium falciparum"}, "[3]": {"details": "cited from earlier work"}, "[4]": {"details": "cited from earlier work", "remark": "listed apart in the source"}, "Pf NF54": {"system": "Pf NF54", "test": "72 h [3H]hypoxanthine incorporation assay", "type": "cell-based", "details": "Plasmodium falciparum, NF54, 72 h"}, "Pf Dd2": {"system": "Pf Dd2", "test": "Antiplasmodial in vitro activity, HRP2 ELISA", "type": "cell-based", "details": "Plasmodium falciparum, DD2, read-out: Pf Dd2 IC50 ± SD"}, "[5]": {"test": "Calculation of hepatic clearance and hepatic extraction ratio", "details": "calculated from in vitro assays"}, "[6]": {"test": "Chemical stability in aqueous solution", "type": "physicochemical", "details": "phosphate buffer pH 7.4, room temperature, over 24 h, n = 3"}, "[7]": {"test": "Snapshot pharmacokinetics", "type": "in vivo", "details": "P. berghei mice, single oral administration of 3, 10 and 30 mg/kg"}, "P. falciparum isolates": {"system": "P. falciparum isolates", "test": "Ex vivo growth inhibition assay of clinical isolates", "type": "cell-based", "details": "Plasmodium falciparum"}, "Plasma stability": {"test": "Plasma stability", "type": "in vitro ADME, human"}, "P. falciparum strain 3D7": {"system": "P. falciparum strain 3D7", "test": "In vitro parasite reduction ratio", "type": "cell-based, Plasmodium falciparum", "details": "10-fold IC50; 28 days recovery in drug-free medium"}, "[8]": {"test": "Microsomal binding, equilibrium dialysis", "type": "in vitro ADME", "details": "human, human liver microsomes, microsomal binding (fraction bound), 1 μM in 0.5 mg/mL HLMs"}, "RF12 (PH-1263-C)": {"system": "RF12 (PH-1263-C)", "test": "microbe, parasite or virus in culture", "type": "cell-based", "details": "Plasmodium falciparum, 72 h, read-out: IC50, RF12 (PH-1263-C)"}, "[9]": {"system": "chloroquine-sensitive and chloroquine-resistant P. falciparum strains", "test": "Initial antiplasmodial in vitro assessment", "type": "cell-based", "details": "Plasmodium falciparum, read-out: IC50 (range over strains)"}, "Plasmodium berghei [10]": {"system": "Plasmodium berghei", "details": "previously published, cited from earlier work"}, "[11]": {"test": "Plasma protein binding, standard equilibrium dialysis assay", "type": "in vitro ADME"}, "HEK293 cells": {"system": "HEK293 cells", "details": "read-out: HEK293 IC50 (n1; n2); previously published; cited from earlier work"}, "HeLa cells": {"system": "HeLa cells", "details": "read-out: HeLa IC50 (n1; n2); previously published; cited from earlier work"}},
  "note": "Read-outs that look alike come from different tables or passages of the source. Marks after values point to notes of the source that are not given here.",
  "data": [
    {"smiles": "C[C@@H]1CC[C@H]2[C@@H](C)C(=O)O[C@@H]3O[C@@]4(C)CC[C@@H]1[C@]32OO4", "note": "[AS, Artemisinin, reference compound]", "values": [
      {"measurement": "cured", "setting": "Plasmodium berghei [1]; oral 4 × 30 mg/kg", "result": "0/10"}
    ]},
    {"smiles": "CCC(C)n1ncn(-c2ccc(N3CCN(c4ccc(OCC5COC(Cn6cncn6)(c6ccc(Cl)cc6Cl)O5)cc4)CC3)cc2)c1=O", "note": "(centres unmarked) [itraconazole, reference compound]", "values": [
      {"measurement": "fraction unbound at 24 h, 25 ng/mL", "setting": "[2]; plasma diluted 1:10 or 1:20 in 0.9% saline", "result": 0.006}
    ]},
    {"smiles": "Cc1cc(Nc2ccc(S(F)(F)(F)(F)F)cc2)n2nc(C(C)(F)F)nc2n1", "note": "[DSM265, reference compound]", "values": [
      {"measurement": "day of recrudescence of parasites", "setting": "P. falciparum Dd2 Polδ; 12 nM (3-fold IC50), inoculum 2 × 10^7 per flask, all three replicate flasks", "result": 16, "unit": "days"}
    ]},
    {"smiles": "CCCCN(CCCC)CC(O)c1cc(Cl)cc2c1-c1ccc(Cl)cc1/C2=C/c1ccc(Cl)cc1", "note": "(centres unmarked) [LUM, Lumefantrine]", "values": [
      {"measurement": "plasma protein binding", "setting": "[3]", "result": ">99^d %"},
      {"measurement": "cured", "setting": "Plasmodium berghei [1]; oral 4 × 30 mg/kg", "result": "3/3"},
      {"measurement": "microsomal stability (60 min), Clint", "setting": "[4]", "result": "Clint = <7 μL/min/mg^d"}
    ]},
    {"smiles": "CCN(CC)CCCC(C)Nc1ccnc2cc(Cl)ccc12", "note": "(centres unmarked) [CQ, Chloroquine]", "values": [
      {"measurement": "IC50", "setting": "Pf NF54; read-out: IC50, NF54", "result": 11, "unit": "nM"},
      {"measurement": "IC50", "setting": "Pf NF54; read-out: Pf NF54 IC50 ± SD", "result": "12 ± 1", "unit": "nM"},
      {"measurement": "IC50", "setting": "Pf Dd2", "result": "240 ± 130", "unit": "nM"},
      {"measurement": "cured", "setting": "Plasmodium berghei [1]; oral 4 × 30 mg/kg", "result": "0/10"}
    ]},
    {"smiles": "Cl.N=C(CC(O)c1cc2c(F)cc(F)cc2c2cc(C(F)(F)F)ccc12)Nc1ccc(F)cc1", "note": "(centres unmarked) [2 (TKK130), (Z)-3-(1,3-Difluoro-6-(trifluoromethyl)phenanthrene-9-yl)-N′-(4-fluorophenyl)-3-hydroxypropanimidamid Hydrochlorid]", "values": [
      {"measurement": "hepatic extraction ratio", "setting": "[5]", "result": 0.17},
      {"measurement": "hepatic clearance", "setting": "[5]; hepatic blood flow 1500 mL/min", "result": 0.25, "unit": "L/min"},
      {"measurement": "chemical stability", "setting": "[6]", "result": "> 90", "unit": "%"},
      {"measurement": "time at which maximum concentration was reached", "setting": "[7]", "result": 4, "unit": "h"},
      {"measurement": "IC50", "setting": "P. falciparum isolates; read-out: max IC50", "result": 25.1, "unit": "nM"},
      {"measurement": "IC50", "setting": "P. falciparum isolates; read-out: min IC50", "result": 1.4, "unit": "nM"},
      {"measurement": "IC50", "setting": "Pf NF54; read-out: IC50, NF54", "result": 12, "unit": "nM"},
      {"measurement": "half-life at 25 ng/mL", "setting": "Plasma stability; human, plasma", "result": 67, "unit": "h"},
      {"measurement": "exposure time reducing the number of viable parasites to baseline", "setting": "P. falciparum strain 3D7", "result": "≤ 24", "unit": "h"},
      {"measurement": "day on which treated cultures were clear", "setting": "P. falciparum Dd2 Polδ; 9 nM (3-fold IC50), inocula 2 × 10^7 and 2 × 10^9", "result": 4, "unit": "days"},
      {"measurement": "parasite growth after selection", "setting": "P. falciparum Dd2 Polδ; 9 nM, inocula 2 × 10^7 and 2 × 10^9, 60 days of recovery time", "result": "no subsequent parasite growth could be observed"},
      {"measurement": "fraction unbound at 24 h, 25 ng/mL", "setting": "[2]; plasma", "result": 0.004},
      {"measurement": "fraction unbound at 24 h, 1 μM", "setting": "[8]", "result": 0.026},
      {"measurement": "IC50", "setting": "RF12 (PH-1263-C)", "result": 4, "unit": "nM"},
      {"measurement": "signs of toxicity during the in vivo studies", "setting": "Plasmodium berghei [1]; mice, oral dosing", "result": "no obvious signs of toxicity"},
      {"measurement": "cured", "setting": "Plasmodium berghei [1]; oral 4 × 3 mg/kg", "result": "0/3"},
      {"measurement": "cured", "setting": "Plasmodium berghei [1]; oral 4 × 10 mg/kg", "result": "1/3"},
      {"measurement": "cured", "setting": "Plasmodium berghei [1]; oral 4 × 30 mg/kg", "result": "3/3"},
      {"measurement": "cured", "setting": "Plasmodium berghei [1]; oral 4 × 50 mg/kg", "result": "3/3"},
      {"measurement": "IC50", "setting": "[9]", "result": "2 to 12", "unit": "nM"}
    ]},
    {"smiles": "CCCCN(CCCC)CCC(O)c1cc2c(Cl)cc(Cl)cc2c2cc(C(F)(F)F)ccc12", "note": "(centres unmarked) [Hf, Halofantrine]", "values": [
      {"measurement": "plasma protein binding", "setting": "[3]; plasma", "result": ">99^d %"},
      {"measurement": "microsomal stability (60 min), Clint", "setting": "[4]", "result": "Clint = 26.9 μL/min/mg^d"}
    ]},
    {"smiles": "COc1ccc(/N=C(\\N)CC(O)c2cc3c(F)cc(F)cc3c3cc(C(F)(F)F)ccc23)cc1", "note": "(centres unmarked) [1 (TKK129)]", "values": [
      {"measurement": "plasma stability", "setting": "Plasma stability; at 37 °C, time without decrease", "result": 24, "unit": "h at 37 °C"},
      {"measurement": "exposure time reducing the number of viable parasites to baseline", "setting": "P. falciparum strain 3D7", "result": "≤ 24", "unit": "h"},
      {"measurement": "MSD", "setting": "Plasmodium berghei [10]; oral 4 × 3 mg/kg", "result": "euthanized"},
      {"measurement": "cured", "setting": "Plasmodium berghei [10]; oral 4 × 3 mg/kg", "result": "0/3"},
      {"measurement": "cured", "setting": "Plasmodium berghei [10]; oral 4 × 10 mg/kg", "result": "0/3"},
      {"measurement": "cured", "setting": "Plasmodium berghei [10]; oral 4 × 30 mg/kg", "result": "1/3"},
      {"measurement": "cured", "setting": "Plasmodium berghei [10]; oral 4 × 50 mg/kg", "result": "2/3"},
      {"measurement": "fraction unbound at 24 h, 25 ng/mL", "setting": "[11]", "result": "< 0.01"},
      {"measurement": "IC50", "setting": "HEK293 cells", "result": 36800, "unit": "nM"},
      {"measurement": "IC50", "setting": "HeLa cells", "result": 46100, "unit": "nM"}
    ]},
    {"smiles": "CCc1nc(N)nc(N)c1-c1ccc(Cl)cc1", "note": "[pyrimethamine, reference compound]", "values": [
      {"measurement": "exposure time reducing the number of viable parasites to baseline", "setting": "P. falciparum strain 3D7", "result": 72, "unit": "h"}
    ]},
    {"smiles": "O=C1C(O)=C([C@H]2CC[C@H](c3ccc(Cl)cc3)CC2)C(=O)c2ccccc21", "note": "[atovaquone, reference compound]", "values": [
      {"measurement": "exposure time reducing the number of viable parasites to baseline", "setting": "P. falciparum strain 3D7", "result": 120, "unit": "h"}
    ]}
  ]
}
